Experiment: Comparative example: solubility of BMDBM in 1:1 mixture of C12-15 alkyl benzoate and other UV-filter
From the text: Where necessary the mixture was centrifuged in order to obtain a clear supernatant.

## CCCCC(CC)COc1ccc(-c2nc(-c3ccc(OC)cc3)nc(-c3ccc(OCC(CC)CCCC)cc3O)n2)c(O)c1 (stereo not drawn) [BEMT, bis-ethylhexyloxyphenol methoxyphenyl triazine]
200 mg BMDBM with 1000 mg of 1:1 mixture, supernatant by HPLC after 1 month at RT
  Solubility of BMDBM in C12-15 alkyl benzoate/UV-filter 1:1: 3 wt.-%
C12-15 alkyl benzoate/UV-filter 1:1
  Δ solubility related to cosmetic solvent (BMDBM): −4 wt.-%
C12-15 alkyl benzoate/UV-filter 1:1 versus C12-15 alkyl benzoate
  Δ solubility of BMDBM: −11 wt.-%

Reference: US20140178318A1, “NOVEL COMPOUNDS” (DSM IP ASSETS B.V., priority 2009, published 2014)
